This is an account of results in patent publication US5672603A, “Apoptosis regulating composition” (Otsuka Pharmaceutical Co., Ltd., priority 1991, dated 1997).

“And” between values parts separate entries of the source, which are not always exact repeats. Equal entries are not always repeated.

The test system of assay [1] is acute hepatic failure model. As to the kind of experiment: Effect on hepatic failure (heat-killed bacteria / LPS), survival. The settings on record: for Survival rate: 7 days after LPS, untreated 0%, solvent 10%. Format: in vivo, Balb/c mice. Here is the method: Heat-killed cells of P. aches (a gift from Dr. Mizoguchi, the Third Department of Internal Medicine, Osaka City University School of Medicine) were administered intravenously in a dose of 3 mg/body to male Balb/c mice (7 weeks old, purchased from Japan SLC). Seven days later; a solvent group (0.5% CMC, Dai-ichi Kogyo Seiyaku Co., Ltd) and an untreated group, as well as the test groups given 10 or 100 mg/kg of Compound 1 orally, were provided. One hour after administration of Compound 1, 5 μg/body of lipopolysaccharide (LPS, Sigma Co., Ltd.) was administered intravenously to induce acute hepatic failure.

For assay [2], the system named is Human promyelocytic leukemia cells (HL-60). As to the kind of experiment: Cancer cell growth inhibition, HL-60 (long-term culture, trypan blue viable count). The settings on record: control 100. Format: cell-based. The source says: The human promyelocytic leukemia cell line HL-60 is a human leukemia cell line established by Robert Gallo et al. and typical properties thereof are described in the literature [Gallo, R. C. et al., Blood, 54, 713 (1979)]. It is available from the American Type Culture Collection (ATCC) under the accession number ATCC No. CCL-240.
The concentration of HL-60 cells was adjusted to 1×10^5 cells/ml using RPMI-1640 medium (GIBCO) supplemented with 10% of FCS (fetal calf serum; GIBCO).
Test compound 1 was dissolved in acetic acid, followed by dilution with the same medium as used above in (1) and neutralization with 2N NaOH to give final concentrations of 100 μg/ml, 10 μg/ml and 1.0 μg/ml.
a) The test compound solutions prepared as described above under (3) were added to the HL-60 cell suspension prepared as described above under (1) to final concentrations of 10 μg/ml and 1.0 μg/ml. Using 12-well culture plates (Costar), cultivation was conducted in a 5% carbon dioxide gas incubator maintained at 37° C. for 3 to 4 days. The test compound-free medium was used as a control. Thereafter, the cell suspension in each well was sampled and mixed with 0.2% trypan blue-containing phosphate buffer, and unstained viable cells were counted under a microscope. Based on the counting result, the viable cell concentration was readjusted to 1×10^5 cells/ml, and cultivation was continued under the same conditions.

For another assay, the system named is B16 melanoma cells. Nature of the assay: Effect on experimental model of pulmonary metastasis of B16 melanoma cells. Format: in vivo, mouse (C57BL/6 mice). To be noted: for No. of colonies in lungs, Mean: control 86.7; for No. of colonies in lungs, individual mice: 4 days. Here is the method: B16 mouse melanoma cells [Koren, S. and Fleischmann, W. R., J. Interferon Research, i, 473-482 (198)], 2×10^6 cells, were suspended in Eagle's MEM medium (Nissui Pharmaceutical Co., Ltd.) supplemented with 10% FBS (Gibco) to which 3 or 10 μg/ml of Compound 1 was previously added or not added. The suspension was cultured in a 75-cm^2 flask (Corning) in an incubator (National Appliance Model 15300) at 37° C. under 5% carbon dioxide for 4 days. Then, the cells were washed with Dulbecco's PBS solution (Nissui pharmaceutical Co., Ltd.), and 0.05% trypsin (Flow Laboratories) was added to detach the cells from the flask. The cells were washed centrifugally (Hitachi 05PR-22, 1200 rpm, 5 minutes) twice and after addition of 0.2% trypan blue (Wako Pure Chemical Industries Ltd.), viable cells were counted using a hemocytometer (No. J7796, Kayagaki Works) and the cells were diluted with Hank's solution (Flow Laboratories)to a concentration of 5×10^6 cells/ml.
The cells obtained as above were transplanted, in a population of 3×10^5 cells each, into groups of 7 C57BL/6 mice (7 weeks old, female, purchased from Charles River Japan, Inc.) through the tail vein. Twelve days later, the mice were killed by cervical dislocation and the number of colonies metastatized to the lungs was determined.

Another assay concerns Reverse transcriptase. Nature of the assay: Antiretrovirus activity test: reverse transcriptase activity of virus from culture supernatant. Format: cell-based, HIV. The settings on record: for Reverse transcriptase activity (cpm): control 1316. The protocol: Human transformed normal T cells (MT-4) [Nagumo, T. and Hoshino, H., Jpn. J. Cancer Res. 79, 9-11 (1988)] were used to prepare a suspension of 2×10^5 cells/ml in RPMI-1640 medium (Gibco) supplemented 10% FCS (Gibco).
Compound 1 was dissolved in hydrochloric acid, diluted in the same medium as above, neutralized with 2N NaOH and adjusted to concentrations of 1 μg/ml, 10 μg/ml, 30 μg/ml and 100 μg/ml.
The cells prepared in (a) above and the test compound (final concentration: 1 μg/ml, 10 μg/ml, 30 μg/ml or 100 μg/ml) prepared in (b) above were placed in the wells of a 12-well culture plate (Costar). Then, 50 μl/well of HIV suspension was added to infect the cells in each well, followed by 3-day incubation at 37° C. in a 5% carbon dioxide incubator. As a control, the medium without addition of the test compound was used. After completion of incubation, the cell suspension in each well was taken and viable cells were counted.
The cell suspension in each well was then centrifuged (1500 rpm×5 min) and 750 μl of culture supernatant was obtained.
The culture supernatant, 750 μ, obtained above was placed in an Eppendorf tube (1.8 ml) and 4 M NaCl and PEG-6000 (Sigma) were added. The mixture was allowed to react at 0° C. for 2 hours to precipitate the virus and the virus was harvested by centrifugation (15000 rpm×20 min). To this virus pellet were added solution 1 [50% glycerol (Wako Pure Chemical), 25 mM Tris-HCl (pH 7.5), 50 mM KCl 0.025% Triton X-100 (Sigma) and 5 mM DTT (Sigma)] and solution II [0.9% Triton X-100 (Sigma) and 1.5M KCl] for lysis at 0° C. for 30 min. To the resultant 10-μl virus solution were added 5 mg/ml bovine serum albumin (BSA, Sigma), 1 M Tris-HCl, 100 mM DTT (Sigma), 1M KCl, 10 mM Poly A (Sigma), 0.15 mM TTP (Sigma), 200 mM MgCl2, 0.15 mM Oligo(dT) (NEN) and [^3 H]-TTP (NEN) and the mixture was allowed to react at 37° C. for 1 hour. The reaction was then stopped by placing the mixture in ice and the whole amount was spotted on a membrane filter (DE-81 Filter, Whatman) and dried. After drying, the filter was washed three times with 0.5 M Na2 HPO4 and rinsed in ethanol and dried. The radioactivity of [^3 H]-TTP taken into DNA on the membrane was counted with a liquid scintillation counter to determine reverse transcriptase activity (unit, cpm).

With `COc1ccc(C(=O)N2CCN(c3ccc4c(c3)CCC(=O)N4)CC2)cc1OC` [Compound 1, 6-[4-(3,4-Dimethoxybenzoyl)-1-piperazinyl]-3,4-dihydrocarbostyril], the Survival rate worked out at 30% in assay [1] (10 mg/kg oral) and 70% in assay [1] (100 mg/kg oral). Further, the “Life-prolonging effect in acute hepatitis model (in words)” value in assay [1] (10 and 100 mg/kg oral) was “dose-dependent and excellent life-prolonging effect”. Besides, the activity at 1 µg/mL was found to be 76 ± 3.8% in assay [2] (HL-60, 648 h, on day 27, 1.0 μg/ml) and 0% in assay [2] (HL-60, 792 h, on day 33, 1.0 μg/ml). Besides, the activity at 10 µg/mL amounted to 54 ± 2.6% in assay [2] (HL-60, 648 h, on day 27, 10 μg/ml) and 0% in assay [2] (HL-60, 792 h, on day 33, 10 μg/ml). The “No. of colonies in lungs, Mean” value with B16 melanoma cells (3 μg/ml, *P < 0.05) turned out to be 10.0 colonies; with B16 melanoma cells (10 μg/ml), 34.7 colonies. In addition, in the assay with B16 melanoma cells (3 or 10 μg/ml), the “Inhibition of pulmonary metastasis (in words)” value is “evident inhibition of pulmonary metastasis”. Further, the “No. of colonies in lungs, individual mice” value with B16 melanoma cells (cells pre-incubated with 3 μg/ml) is 14 colonies and 7 colonies and 11 colonies and 6 colonies and 8 colonies and 24 colonies and 0 colonies; in the assay with B16 melanoma cells (cells pre-incubated with 10 μg/ml) it was 17 colonies and 43 colonies (2×) and 65 colonies and 7 colonies and 46 colonies and 22 colonies. The “Reverse transcriptase activity (cpm)” value in the assay with Reverse transcriptase (1 μg/ml) is reported as 1423 cpm; with Reverse transcriptase (10 μg/ml) it was 1494 cpm; in the assay with Reverse transcriptase (30 μg/ml), 372 cpm; with Reverse transcriptase (100 μg/ml), 898 cpm. In the assay on Reverse transcriptase (30 μg/ml and 100 μg/ml), the “Inhibition of reverse transcriptase activity (in words)” value is on record as “inhibits reverse transcriptase activity remarkably”.
